Experimental data taken from the NIST ThermoML archive (doi:10.1016/j.fluid.2010.04.016).
± gives the expanded uncertainty stated by the source.

Settings: Crystal; visual observation

| Compound | Normal melting temperature |
| --- | --- |
| CCCCCCCCCCO [decan-1-ol] | 7.04 ± 0.16 °C |
| CCCCCCCCO [octan-1-ol] | -15.4 ± 0.16 °C |
